ChEMBL document CHEMBL1127134, “Synthesis and antibacterial activity of (1R,5R,6R)-2-tert-butyl-6-(1-hydroxyethyl)oxapenem-3-carboxylic acid” (1993)
In brackets after ≈: the same amount, converted by molar mass.

Key:
Bacteroides fragilis [1] = assay: Minimum inhibitory concentration required for the antibacterial activity against Bacillus fragilis 06688; assay type: functional
[2] = system: Peptostreptococcus anaerobius; assay: Minimum inhibitory concentration required for the antibacterial activity against Peptostrept. anaer. DSM 20357; assay type: functional
Bacteroides fragilis [3] = assay: Minimum inhibitory concentration required for the antibacterial activity against Bacillus fragilis 2034/35 Kr 43; assay type: functional
Thomasclavelia ramosa = assay: Minimum inhibitory concentration required for the antibacterial activity against Clostridium ramosum DSM 1402; assay type: functional
Bacteroides ovatus = assay: Minimum inhibitory concentration required for the antibacterial activity against Bacillus ovatus Heidelberg; assay type: functional, bacillus ovatu
Clostridium perfringens [4] = assay: Minimum inhibitory concentration required for the antibacterial activity against Clostridium perfringens 24071; assay type: functional
Anaerococcus prevotii = assay: Minimum inhibitory concentration required for the antibacterial activity against Peptococcus prevotii DSM 20548; assay type: functional
[5] = system: Peptostreptococcus anaerobius; assay: Minimum inhibitory concentration required for the antibacterial activity against Peptostrept. anaer. 222 I/82; assay type: functional
[6] = system: Fusobacterium necrophorum; assay: Minimum inhibitory concentration required for the antibacterial activity against Sphaerophorus necrophorus Kr; assay type: functional
Bacteroides fragilis [7] = assay: Minimum inhibitory concentration required for the antibacterial activity against Bacillus fragilis 4661 Kr; assay type: functional
Bacteroides fragilis [8] = assay: Minimum inhibitory concentration required for the antibacterial activity against Bacillus fragilis Kr 1 TV; assay type: functional
Bacteroides fragilis [9] = assay: Minimum inhibitory concentration required for the antibacterial activity against Bacillus fragilis Kr II; assay type: functional
[10] = system: Bacteroides thetaiotaomicron; assay: Minimum inhibitory concentration required for the antibacterial activity against Bacillus thetaiotaomicron DSM 2079; assay type: functional
[11] = system: Prevotella melaninogenica; assay: Minimum inhibitory concentration required for the antibacterial activity against Bacillus melaninogenicus Heidelberg; assay type: functional
Clostridium butyricum = assay: Minimum inhibitory concentration required for the antibacterial activity against Clostridium butyricum; assay type: functional
Bacteroides fragilis [12] = assay: Minimum inhibitory concentration required for the antibacterial activity against Bacillus fragilis GA I - 0558 Japan; assay type: functional
Bacteroides fragilis [13] = assay: Minimum inhibitory concentration required for the antibacterial activity against Bacillus fragilis L 1168 Italien; assay type: functional
[14] = system: Bacteroides thetaiotaomicron; assay: Minimum inhibitory concentration required for the antibacterial activity against Bacillus thetaiotaomicron 235 Munchen; assay type: functional
Clostridium perfringens [15] = assay: Minimum inhibitory concentration required for the antibacterial activity against Clostridium perfringens 1024027; assay type: functional
[16] = system: Parabacteroides distasonis; assay: Minimum inhibitory concentration required for the antibacterial activity against Bacillus distasonis Heidelberg; assay type: functional
[17] = system: Peptoniphilus asaccharolyticus; assay: Minimum inhibitory concentration required for the antibacterial activity against Peptococcus asacchar. DSM 20463; assay type: functional
[18] = system: Peptostreptococcus anaerobius; assay: Minimum inhibitory concentration required for the antibacterial activity against Peptostrept. anaer. Kr II; assay type: functional
Fusobacterium nucleatum = assay: Minimum inhibitory concentration required for the antibacterial activity against Fusobacterium nucleatum DSM 20482; assay type: functional
Bacteroides fragilis [19] = assay: Minimum inhibitory concentration required for the antibacterial activity against Bacillus fragilis 010848; assay type: functional
Bacteroides fragilis [20] = assay: Minimum inhibitory concentration required for the antibacterial activity against Bacillus fragilis ES 25; assay type: functional
[21] = system: Peptostreptococcus anaerobius; assay: Minimum inhibitory concentration required for the antibacterial activity against Peptostrept. anaer. Kr I; assay type: functional
Clostridium septicum = assay: Minimum inhibitory concentration required for the antibacterial activity against Clostridium septicum; assay type: functional
[22] = system: Parabacteroides distasonis; assay: Minimum inhibitory concentration required for the antibacterial activity against Bacillus distasonis Kr; assay type: functional
[23] = system: Prevotella melaninogenica; assay: Minimum inhibitory concentration required for the antibacterial activity against Bacillus melaninogenicus Kr; assay type: functional
Bacteroides fragilis [24] = assay: Minimum inhibitory concentration required for the antibacterial activity against Bacillus fragilis 4891/91 Kr; assay type: functional
Phocaeicola vulgatus = assay: Minimum inhibitory concentration required for the antibacterial activity against Bacillus valgatus Kr III; assay type: functional
Bacteroides fragilis [25] = assay: Minimum inhibitory concentration required for the antibacterial activity against Bacillus fragilis 1560 I/82; assay type: functional
Clostridium perfringens [26] = assay: Minimum inhibitory concentration required for the antibacterial activity against Clostridium perfringens 24072; assay type: functional
Bacteroides fragilis [27] = assay: Minimum inhibitory concentration required for the antibacterial activity against Bacillus fragilis DSM 2151; assay type: functional
Clostridium perfringens [28] = assay: Minimum inhibitory concentration required for the antibacterial activity against Clostridium perfringens DSM 756; assay type: functional
Clostridium sporogenes = assay: Minimum inhibitory concentration required for the antibacterial activity against Clostridium sporogenes; assay type: functional
Staphylococcus aureus [29] = assay: Minimum inhibitory concentration required for the antibacterial activity against Staphylococcus aureus 90 Innsbruck; assay type: functional
Staphylococcus aureus [30] = assay: Minimum inhibitory concentration required for the antibacterial activity against Staphylococcus aureus 21b Belgium; assay type: functional
Staphylococcus aureus [31] = assay: Minimum inhibitory concentration required for the antibacterial activity against Staphylococcus aureus 1756; assay type: functional; conditions: Staphylococcus aureus; read-out: MIC
Staphylococcus aureus [32] = assay: Minimum inhibitory concentration required for the antibacterial activity against Staphylococcus aureus 41h Belgium; assay type: functional
Staphylococcus aureus [33] = assay: Minimum inhibitory concentration required for the antibacterial activity against Staphylococcus aureus 79B Innsbruck; assay type: functional
Staphylococcus aureus [34] = assay: Minimum inhibitory concentration required for the antibacterial activity against Staphylococcus aureus 25085; assay type: functional
Staphylococcus aureus [35] = assay: Minimum inhibitory concentration required for the antibacterial activity against Staphylococcus aureus 25470; assay type: functional
Staphylococcus aureus [36] = assay: Minimum inhibitory concentration required for the antibacterial activity against Staphylococcus aureus 48N Munchen; assay type: functional
Staphylococcus aureus [37] = assay: Minimum inhibitory concentration required for the antibacterial activity against Staphylococcus aureus 25697; assay type: functional
Staphylococcus aureus [38] = assay: Minimum inhibitory concentration required for the antibacterial activity against Staphylococcus aureus 13N Munchen; assay type: functional
Staphylococcus aureus [39] = assay: Minimum inhibitory concentration required for the antibacterial activity against Staphylococcus aureus 25464; assay type: functional
Staphylococcus aureus [40] = assay: Minimum inhibitory concentration required for the antibacterial activity against Staphylococcus aureus 25768; assay type: functional
Staphylococcus aureus [41] = assay: Minimum inhibitory concentration required for the antibacterial activity against Staphylococcus aureus 25463; assay type: functional
Staphylococcus aureus [42] = assay: Minimum inhibitory concentration required for the antibacterial activity against Staphylococcus aureus 17N Munchen; assay type: functional
Staphylococcus aureus [43] = assay: Minimum inhibitory concentration required for the antibacterial activity against Staphylococcus aureus 77 Innsbruck; assay type: functional
Staphylococcus aureus [44] = assay: Minimum inhibitory concentration required for the antibacterial activity against Staphylococcus aureus 4978 Israel; assay type: functional
Staphylococcus aureus [45] = assay: Minimum inhibitory concentration required for the antibacterial activity against Staphylococcus aureus 86 Innsbruck; assay type: functional
Staphylococcus aureus [46] = assay: Minimum inhibitory concentration for the antibacterial activity against Staphylococcus aureus 48N Munchen; assay type: functional

CCn1cc(C(=O)O)c(=O)c2cc(F)c(N3CCNCC3)cc21 [NORFLOXACIN]
MIC (Bacteroides fragilis [1]): > 16 µg/mL
MIC [2]: > 16 µg/mL
MIC (Bacteroides fragilis [3]): > 16 µg/mL
MIC (Thomasclavelia ramosa): > 16 µg/mL
MIC (Bacteroides ovatus): > 16 µg/mL
MIC (Clostridium perfringens [4]): 4 µg/mL (≈ 12.5 µM)
MIC (Anaerococcus prevotii): > 16 µg/mL
MIC [5]: > 16 µg/mL
MIC [6]: 2 µg/mL (≈ 6.26 µM)
MIC (Bacteroides fragilis [7]): > 16 µg/mL
MIC (Bacteroides fragilis [8]): > 16 µg/mL
MIC (Bacteroides fragilis [9]): > 16 µg/mL
MIC [10]: > 16 µg/mL
MIC [11]: > 16 µg/mL
MIC (Clostridium butyricum): 16 µg/mL (≈ 50.1 µM)
MIC (Bacteroides fragilis [12]): > 16 µg/mL
MIC (Bacteroides fragilis [13]): > 16 µg/mL
MIC [14]: > 16 µg/mL
MIC (Clostridium perfringens [15]): 2 µg/mL (≈ 6.26 µM)
MIC [16]: > 16 µg/mL
MIC [17]: 4 µg/mL (≈ 12.5 µM)
MIC [18]: 2 µg/mL (≈ 6.26 µM)
MIC (Fusobacterium nucleatum): 16 µg/mL (≈ 50.1 µM)
MIC (Bacteroides fragilis [19]): > 16 µg/mL
MIC (Bacteroides fragilis [20]): > 16 µg/mL
MIC [21]: > 16 µg/mL
MIC (Clostridium septicum): 16 µg/mL (≈ 50.1 µM)
MIC [22]: > 16 µg/mL
MIC [23]: 16 µg/mL (≈ 50.1 µM)
MIC (Bacteroides fragilis [24]): > 16 µg/mL
MIC (Phocaeicola vulgatus): > 16 µg/mL
MIC (Bacteroides fragilis [25]): > 16 µg/mL
MIC (Clostridium perfringens [26]): 4 µg/mL (≈ 12.5 µM)
MIC (Bacteroides fragilis [27]): > 16 µg/mL
MIC (Clostridium perfringens [28]): > 16 µg/mL
MIC (Clostridium sporogenes): 16 µg/mL (≈ 50.1 µM)

O=C(O)c1cn(C2CC2)c2cc(N3CCNCC3)c(F)cc2c1=O [CIPROFLOXACIN]
MIC (Staphylococcus aureus [29]): 12.5 µg/mL (≈ 37.7 µM)
MIC (Staphylococcus aureus [30]): 50 µg/mL (≈ 151 µM)
MIC (Staphylococcus aureus [31]): ≤ 0.78 µg/mL
MIC (Staphylococcus aureus [32]): 100 µg/mL (≈ 302 µM)
MIC (Staphylococcus aureus [33]): 100 µg/mL (≈ 302 µM)
MIC (Staphylococcus aureus [34]): ≤ 0.78 µg/mL
MIC (Staphylococcus aureus [35]): ≤ 0.78 µg/mL
MIC (Staphylococcus aureus [36]): 12.5 µg/mL (≈ 37.7 µM)
MIC (Staphylococcus aureus [37]): 12.5 µg/mL (≈ 37.7 µM)
MIC (Staphylococcus aureus [38]): 1.56 µg/mL (≈ 4.71 µM)
MIC (Staphylococcus aureus [39]): ≤ 0.78 µg/mL
MIC (Staphylococcus aureus [40]): 100 µg/mL (≈ 302 µM)
MIC (Staphylococcus aureus [41]): 1.56 µg/mL (≈ 4.71 µM)
MIC (Staphylococcus aureus [42]): 12.5 µg/mL (≈ 37.7 µM)
MIC (Staphylococcus aureus [43]): > 100 µg/mL
MIC (Staphylococcus aureus [44]): ≤ 0.78 µg/mL
MIC (Staphylococcus aureus [45]): 100 µg/mL (≈ 302 µM)

CC1(C)S[C@@H]2[C@H](NC(=O)[C@H](N)c3ccccc3)C(=O)N2[C@H]1C(=O)O [AMPICILLIN]
MIC (Staphylococcus aureus [29]): 50 µg/mL (≈ 143 µM)
MIC (Staphylococcus aureus [30]): > 100 µg/mL
MIC (Staphylococcus aureus [31]): 50 µg/mL (≈ 143 µM)
MIC (Staphylococcus aureus [32]): 50 µg/mL (≈ 143 µM)
MIC (Staphylococcus aureus [33]): 50 µg/mL (≈ 143 µM)
MIC (Staphylococcus aureus [34]): 50 µg/mL (≈ 143 µM)
MIC (Staphylococcus aureus [35]): 50 µg/mL (≈ 143 µM)
MIC (Staphylococcus aureus [36]): 50 µg/mL (≈ 143 µM)
MIC (Staphylococcus aureus [37]): 25 µg/mL (≈ 71.5 µM)
MIC (Staphylococcus aureus [38]): 50 µg/mL (≈ 143 µM)
MIC (Staphylococcus aureus [39]): 50 µg/mL (≈ 143 µM)
MIC (Staphylococcus aureus [40]): 50 µg/mL (≈ 143 µM)
MIC (Staphylococcus aureus [41]): 50 µg/mL (≈ 143 µM)
MIC (Staphylococcus aureus [42]): 25 µg/mL (≈ 71.5 µM)
MIC (Staphylococcus aureus [43]): 50 µg/mL (≈ 143 µM)
MIC (Staphylococcus aureus [44]): 1.56 µg/mL (≈ 4.46 µM)
MIC (Staphylococcus aureus [45]): 50 µg/mL (≈ 143 µM)

COc1cccc(OC)c1C(=O)N[C@@H]1C(=O)N2[C@@H]1SC(C)(C)[C@@H]2C(=O)O [METHICILLIN]
MIC (Staphylococcus aureus [29]): 50 µg/mL (≈ 131 µM)
MIC (Staphylococcus aureus [30]): > 100 µg/mL
MIC (Staphylococcus aureus [31]): 50 µg/mL (≈ 131 µM)
MIC (Staphylococcus aureus [32]): > 100 µg/mL
MIC (Staphylococcus aureus [33]): 25 µg/mL (≈ 65.7 µM)
MIC (Staphylococcus aureus [34]): 6.25 µg/mL (≈ 16.4 µM)
MIC (Staphylococcus aureus [35]): > 100 µg/mL
MIC (Staphylococcus aureus [46]): 6.25 µg/mL (≈ 16.4 µM)
MIC (Staphylococcus aureus [37]): 6.25 µg/mL (≈ 16.4 µM)
MIC (Staphylococcus aureus [38]): 50 µg/mL (≈ 131 µM)
MIC (Staphylococcus aureus [39]): > 100 µg/mL
MIC (Staphylococcus aureus [40]): 6.25 µg/mL (≈ 16.4 µM)
MIC (Staphylococcus aureus [41]): 1.56 µg/mL (≈ 4.1 µM)
MIC (Staphylococcus aureus [42]): 3.12 µg/mL (≈ 8.2 µM)
MIC (Staphylococcus aureus [43]): 50 µg/mL (≈ 131 µM)
MIC (Staphylococcus aureus [44]): ≤ 0.78 µg/mL
MIC (Staphylococcus aureus [45]): 25 µg/mL (≈ 65.7 µM)
